Laboratory results from article PMC9654820, “Immunosuppressive Sesquiterpene Pyridine Alkaloids from Tripterygium wilfordii Hook. f” (Molecules, 2022).
“Also recorded” adds a separate entry of the source.

Columns and labels:
Format in all cases: cell-based
[1] = Cell viability assay (CCK-8); conditions: human; HEK293 cells, CCK-8, compound at 100 μM, 48 h incubation; read-out: Cell Viability (%) (N = 3)
Experimental: (§1) The viability of HEK293 cells was determined by a CCK-8 assay according to the established protocol. Briefly, 5 × 10^3 cells/well HEK293 cells were cultured in 96-well plates at 37 °C under an atmosphere of 5% CO2 for 24 h and then treated with the tested compounds. After 48 h of incubation, CCK-8 reagent (20 μL) was added into each well and continuously incubated for 2 h at 37 °C. Absorbance at a wavelength of 450 nm was measured by a microplate reader, which was further used to calculate the cell viability. All the experiments were performed in triplicate.

NF-κB pathway = test: NF-κB inhibitory (immunosuppressive) activity, luciferase reporter assay in LPS-induced HEK293/NF-κB-Luc cells; conditions: for inhibition at 100 µM / IC50: Homo sapiens; for inhibition at 100 µM: HEK293, 24 h, read-out: NF-κB Inhibitory Rates (%) (N = 3); for IC50: read-out: IC50 NF-κB inhibition
Experimental: The NF-κB inhibitory activities were measured using the HEK293/NF-κB-Luc cells, which were generated as described previously. Briefly, HEK293 cells were co-transfected with a luciferase reporter plasmid, which contained an NF-κB binding site and pcDNA3.1, using Lipofectamine 2000 at a concentration of 10:1. The HEK293/ NF-κB-Luc cells were plated in 48-well plates and cultured in DMEM supplemented with 10% fetal bovine serum (FBS) for 16 h. Then, the cells were treated with the tested compounds, followed by stimulation with 1 μg/mL of LPS for 24 h. The cells were rinsed twice with phosphate-buffered saline (PBS, pH 7.4) and lysed with passive lysis buffer. Then, the inhibitory effects on NF-κB were analyzed using the luciferase assay system according to the manufacturer’s instructions. All the experiments were performed in triplicate.

HEK293 cells = test: Cell viability assay (CCK-8); conditions: for influence on the cell viability: CCK-8, at a concentration of 100 μM
Experimental: as §1

[2] = HEK293/NF-κB-Luc cells induced by LPS (1 μg/mL, 24 h), compound at 100 μM
[3] = HEK293/NF-κB-Luc cells induced by LPS

Compound: CC(=O)OCC12[C@H](OC(C)=O)[C@H](OC(C)=O)[C@@H]3[C@@H](O)[C@@]14O[C@@]3(C)COC(=O)c1cccnc1CCC(C)(O)C(=O)O[C@@H]([C@H](OC(=O)c1ccoc1)[C@@H]2OC(C)=O)[C@]4(C)O (stereo partly drawn) [Compound 4, 2β-furanoyloxy-1β,7β,8β,11-tetraacetoxy-4α,5α-dihydroxy-3α,15-[2′-methyl-2′-hydroxy-4′-(3′′-carboxy-2′′ -pyridyl)butanoic acid] dicarbolactone dihydro-β-agarofuran]
- viability at 48 h, 100 µM [1]: 101 ± 3.58%
- inhibition at 100 µM (NF-κB pathway; [2]): 7.27 ± 2.28%

Compound: CC(=O)OCC12[C@H](OC(C)=O)[C@H](OC(C)=O)[C@@H]3[C@@H](O)[C@@]14O[C@@]3(C)COC(=O)c1cccnc1CCC(C)(O)C(=O)O[C@@H]([C@H](OC(=O)c1ccccc1)[C@@H]2OC(C)=O)[C@]4(C)O (stereo partly drawn) [Compound 5, 2β-benzoyloxy-1β,7β,8β,11-tetraacetoxy-4α,5α-dihydroxy-3α,15-[2′-methyl-2′-hydroxy-4′-(3′′-carboxy-2′′-pyridyl)butanoic acid] dicarbolactone dihydro-β-agarofuran]
- influence on the cell viability (HEK293 cells): no influence on the cell viability; also recorded: no effects on the cell viability
- viability at 48 h, 100 µM [1]: 93.8 ± 2.2%
- inhibition at 100 µM (NF-κB pathway; [2]): > 50%
- IC50 (NF-κB pathway; [3]): 8.75 µM

Compound: CC(=O)OCC12C(OC(C)=O)C(=O)C3C(OC(C)=O)C14OC3(C)COC(=O)c1cccnc1CCC(C)(OC(=O)c1ccoc1)C(=O)OC(C(OC(C)=O)C2OC(C)=O)C4(C)O (stereo not drawn) [Compound 9, 1β,2β,5α,8β,11-pentaacetoxy-4α-droxy-7-oxo-3α,15-[2′-methyl-2′-(3-furoyloxy)-4′-(3′′-carboxy-2′′-pyridyl)butanoic acid] dicarbolactone dihydro-β-agarofuran]
- viability at 48 h, 100 µM [1]: 99.5 ± 5.71%
- inhibition at 100 µM (NF-κB pathway; [2]): 37.4 ± 1.99%

Compound: CC(=O)OCC12[C@H](OC(C)=O)C(=O)[C@@H]3[C@@H](OC(C)=O)[C@@]14O[C@@]3(C)COC(=O)c1cccnc1CCC(C)(OC(=O)c1ccccc1)C(=O)O[C@@H]([C@H](OC(C)=O)[C@@H]2OC(C)=O)[C@]4(C)O (stereo partly drawn) [Compound 10, 1β,2β,5α,8β,11-pentaacetoxy-4α-droxy-7-oxo-3α,15-[2′-methyl-2′-(3-benzoyloxy)-4′-(3′′-carboxy-2′′-pyridyl)butanoic acid] dicarbolactone dihydro-β-agarofuran]
- viability at 48 h, 100 µM [1]: 102.8 ± 0.89%
- inhibition at 100 µM (NF-κB pathway; [2]): 21.7 ± 4.42%

Compound: CC(=O)OC[C@]12[C@H](OC(C)=O)[C@H](OC(C)=O)[C@@H]3[C@@H](OC(C)=O)[C@@]14O[C@@]3(C)COC(=O)c1cccnc1CCC(C)(O)C(=O)O[C@@H]([C@H](O)[C@@H]2OC(C)=O)[C@@]4(C)O (stereo partly drawn) [Compound 11, tripfordine A]
- influence on the cell viability (HEK293 cells): no influence on the cell viability; also recorded: no effects on the cell viability
- viability at 48 h, 100 µM [1]: 102 ± 3.66%
- inhibition at 100 µM (NF-κB pathway; [2]): > 50%
- IC50 (NF-κB pathway; [3]): 0.74 µM

Compound: CC(=O)OCC12[C@H](OC(C)=O)[C@H](OC(C)=O)[C@@H]3[C@@H](OC(C)=O)[C@@]14O[C@@]3(C)COC(=O)c1cccnc1CCC(C)C(=O)O[C@@H]([C@H](O)[C@@H]2OC(C)=O)[C@]4(C)O (stereo partly drawn) [Compound 12, wilforjine]
- viability at 48 h, 100 µM [1]: 93.5 ± 2.76%
- inhibition at 100 µM (NF-κB pathway; [2]): 23 ± 3.43%

Compound: CC(=O)OCC12[C@H](OC(C)=O)C(=O)[C@@H]3[C@@H](OC(C)=O)[C@@]14O[C@@]3(C)COC(=O)c1cccnc1CCC(C)C(=O)O[C@@H]([C@H](OC(C)=O)[C@@H]2OC(C)=O)[C@]4(C)O (stereo partly drawn) [Compound 13, evonimine]
- viability at 48 h, 100 µM [1]: 100 ± 6.4%
- inhibition at 100 µM (NF-κB pathway; [2]): 26.5 ± 5.99%

Compound: CC(=O)OCC12[C@H](OC(C)=O)[C@H](OC(C)=O)[C@@H]3[C@@H](OC(C)=O)[C@@]14O[C@@]3(C)COC(=O)c1cccnc1CCC(C)(OC(=O)c1ccccc1)C(=O)O[C@@H]([C@H](OC(C)=O)[C@@H]2OC(C)=O)[C@]4(C)O (stereo partly drawn) [Compound 15, wilfornine A]
- viability at 48 h, 100 µM [1]: 110 ± 5.83%
- inhibition at 100 µM (NF-κB pathway; [2]): 8.73 ± 2.07%

Compound: CC(=O)OC[C@]12[C@H](OC(C)=O)[C@H](OC(C)=O)[C@@H]3[C@@H](OC(C)=O)[C@@]14O[C@@]3(C)COC(=O)c1cccnc1CCC(C)C(=O)O[C@@H]([C@H](OC(=O)c1ccccc1)[C@@H]2OC(C)=O)[C@]4(C)O (stereo partly drawn) [Compound 16, wilforine]
- influence on the cell viability (HEK293 cells): no influence on the cell viability; also recorded: no effects on the cell viability
- viability at 48 h, 100 µM [1]: 103 ± 2.21%
- inhibition at 100 µM (NF-κB pathway; [2]): > 50%
- IC50 (NF-κB pathway; [3]): 15.7 µM

Compound: Cc1ccc(NCCCc2ccccc2)c(N)c1 [JSH23, reference compound]
- NF-κB Inhibitory Rates (%) (N = 3) (NF-κB pathway; positive control, HEK293/NF-κB-Luc cells induced by LPS, concentration not given): 74.56 ± 1.83%

Compound: wilfortrine [Compound 14]
- Cell Viability (%) (N = 3) (HEK293 cells; HEK293 cells, CCK-8, compound at 100 μM, 48 h incubation): 93.76 ± 1.82%
- NF-κB Inhibitory Rates (%) (N = 3) (NF-κB pathway; [2]): 40.20 ± 3.92%
